The values below come from PMC5095007, “Liposomal bortezomib is active against chronic myeloid leukemia by disrupting the Sp1-BCR/ABL axis” (Oncotarget, 2016).

Data set [1] concerns K562/DOX cells. Kind of data set: Chemosensitization to doxorubicin by subtoxic BORT formulations, MTT/MTS assay. It is filed as cell-based. The note with it: Homo sapiens, DOX alone (No BORT), mean ±SD, n=6. Background: Tetrazolium assays rely on reduction of a dye to a coloured formazan, in cell work by metabolically active cells.
Method: To determine if L-BORT and Tf-L-BORT could enhance the cytotoxicity of agents used for CML therapy, we employed the MTS assay to evaluate the cytotoxic effects of doxorubicin, alone and in combination with a subtoxic BORT formulation at 2 nM to doxorubicin resistant K562/DOX cells. Initially, we determined the effects of drug treatment sequences on chemosensitivities by treating the K562/DOX cells with 100 nM doxorubicin for 24-hour before, after or simultaneous addition of subtoxic 2 or 10 nM Tf-L-BORTs followed by another 24 hour co-incubation. […] We then applied this treatment strategy to K562/DOX cells exposed to various concentrations of doxorubicin.
To evaluate BORT toxicity, K562 cells were treated by different concentration of free- or L-BORT. Regarding to the chemosensitivity to doxorubicin, the K562/ DOX cells were pre-treated with doxorubicin for 24 hours and then subtoxic BORT formulations were added for additional 24 hours. Cellular viability was assessed by MTT proliferation assays (Promega, Madison, WI).
For the studies, 24-hour treatment. At this point, 20 μL of CellTiter 96®
AQueous One Solution was added to each well and
37 °C for another 1 hour.
Data set [2] has as its system BCR/ABL protein expression in K562 cells. Nature of the data set: Western blotting of BCR/ABL and Sp1. The data set is classed as cell-based. How it is done:
Sp1 siRNA, miR-29b and their scrambles were introduced into K562 cells by Lipofectamine™ 2000 (Invitrogen) and the Western blotting was performed as previously described. The antibodies used are: Sp1, DNMT3a, β-actin and ubiquitin (Santa Cruz Biotechnology, Santa Cruz, CA); ABL, phospho-ABL, caspase-3 and caspase-8 (Cell Signaling Technology, Danvers, MA); Parp, CRKL and p-CRKL (Millipore, Billerica, MA).
Background: A western blot detects proteins with antibodies after separation by electrophoresis.

For data set [3], the system named is K562 single tumor cells. Kind of data set: Chemosensitization of single tumor cells to doxorubicin, MTT assay. The note with it: DOX alone (no BORT), mean ±SD, n=6. The data set is classed as cell-based. How it is done:
To investigate how L-BORT influences tumor cell growth, tumors were harvested from K562 tumor bearing mice and separated into single cells by collagenase. The single tumor cells were then cultured in RPMI1640 medium with 10% FBS and the cell survival was then evaluated in the presence of doxorubicin combined with subtoxic BORT. As shown in Figure 5C and Table 4, a synergistic effect of toxicity to single tumor cells was found between DOX and free BORT, consistent with what we have observed in K562 cells. […] L-BORT, with enhanced BORT delivery, amplified the synergy effect to approximately a 70-fold increase in chemosensitivity (p < 0.05).
K562 cells (10×10^6) were subcutaneously injected into the flank of 4-6 week old NOD/SCID mice (The Jackson Laboratory, Bar Harbor, ME). When the tumor size approached 1000 mm^3, the tumors were harvested from mouse flank and cut into pieces in PBS buffer. Collagenase was added into the above buffer and incubated for 2 hours at 37°C with shaking. The digested tumor cell suspension was filtered through a cell strainer and centrifuged at 1200 rpm for 5 minutes. The separated tumor cells were kept in cell frozen medium and stored in liquid N2 until use. […]

Data set [4] is described as follows: Toxicity assay in vivo in normal mice. The note with it: normal BALB/cByJ mice, 2.5 mg/kg every four days, tail vein; in two weeks. The protocol: To determine the toxicity in vivo, liposomal vehicle, free or L-BORT was administrated through the tail vein to normal BALB/cByJ mice (6-8 weeks old, 22 ± 5 g) in a small volume (0.2 ml) at normal pressure. The dose used was 2.5 mg/kg every four days.

Data set [5] is described as follows: in vivo. The note with it: ICR, mouse, plasma, iv, 1 mg/kg.
Method: (§1) BORT exposure and elimination in mice were investigated following a tail vein injection of L-BORT at 1.0 mg/kg dose. […] PK parameters were obtained by Non-compartmental PK analysis in Phoenix WinNonlin.
(§2) BORT (1.0 mg/kg) was injected into ICR mice via the tail vein and blood samples were collected at various time points. Plasma was isolated by centrifugation at 1500×g for 10 minutes and stored at −20°C. Concentration of BORT in the plasma was calculated from boron concentration the sample, which was measured by coupled plasma-optical emission spectrometers (ICP-OES). For ICP-OES measurement, the plasma samples were prepared as previously described [28]. Data analysis and PK parameter calculations were carried out in Phoenix® WinNonlin® 6.3 (Certara, Princeton, NJ).
Data set [6] has as its system BCR/ABL protein expression in KU812 cells. Kind of data set: Western blotting of BCR/ABL and Sp1. The data set is classed as cell-based. The note with it: KU812, different doses of BORT for 24 hours.
The nature of data set [7]: Pharmacokinetics after tail vein injection, plasma BORT by ICP-OES. The note with it: ICR mice, 1.0 mg/kg i.v. tail vein, mean (%CV), n=5.
Method: as §1, §2
The subject of data set [8] is K562 cells. Nature of the data set: Cytotoxicity of BORT formulations, MTT/MTS cell proliferation assay. It is filed as cell-based. The note with it: mean ±SD, n=6.
Method: To evaluate BORT toxicity, K562 cells were treated by different concentration of free- or L-BORT. […] Cellular viability was assessed by MTT proliferation assays (Promega, Madison, WI).
In data set [9] the test system is imatinib-refractory CML. On the set-up: method as in PMID 21816374. The note with it: pilot clinical trial, imatinib-refractory CML patients; ref [15]; cited from earlier work.

What is called IC50 is the concentration that gives 50% inhibition. As for `COc1cccc2c1C(=O)c1c(O)c3c(c(O)c1C2=O)C[C@@](O)(C(=O)CO)C[C@@H]3O[C@H]1C[C@H](N)[C@H](O)[C@H](C)O1` [DOX, doxorubicin], the IC50 in [1] turned out to be 20.2 ± 8.75 µM; in [3] (48 hours) it was 17.1 ± 0.534 µM; in data set [3] (Homo sapiens, K562, 48 h), 17 µM. Further, the BCR/ABL expression result in data set [2] (K562, various doses, 48 hours) is reported as “dose-dependently downregulated”.

One may read the AUC(0-inf) as the area under the concentration-time curve extrapolated to infinity. A low value points to less exposure. For orientation: Cmax means the highest concentration seen after dosing. Usually clearance stands for a measure of how efficiently the substance is removed, as volume per time. By half-life is commonly meant the time needed for the level to fall by half in the phase considered. High values mean slow decline, low ones rapid decline. The molecule `CC(C)C[C@H](NC(=O)[C@H](Cc1ccccc1)NC(=O)c1cnccn1)B(O)O` [Free BORT, bortezomib] had a mice died in data set [4] of 50%. In data set [5], the total exposure AUC(0-inf) is 469 ng·h/mL, the Cmax turned out to be 758 ng/mL, the clearance was 25.2 mL/min/kg and the half-life was 12.4 h. Besides, in data set [6], the “Sp1 and BCR/ABL protein expression” value was “inhibition of Sp1 and BCR/ABL protein expression”. Further, the AUCinf in data set [7] (1 mg/kg) is recorded as 0.661 (12.8%) μg·hr/mL. Besides, in [7] (total body clearance), the CL is reported as 1.51 (17.9%) L/hr/kg. Besides, the V in data set [7] (volume of distribution) is on record as 27.1 (17.6%) L/kg. This molecule registered a half-maximal inhibitory concentration (IC50) in [8] (48 hours) of 0.0393 ± 0.00227 µM. In [8] (Homo sapiens, K562, 48 h), this molecule returned a 50% inhibitory concentration (IC50) of 0.039 µM. In addition, in data set [2] (K562, different doses of BORT for 24 hours), the “Sp1 and BCR/ABL protein expression” value is “inhibition of Sp1 and BCR/ABL protein expression”. Further, in [9], the clinical efficacy result is reported as “minimal efficacy” and the clinical toxicity result is “considerable toxicity”.
